Reference: patent US5438052A, “Cephalosporin derivatives” (Hoffmann-La Roche Inc., priority 1991, dated 1995)
Values after ≈ are worked out from the molar mass of the structure shown.

Tests used:
C. freundii 902 = assay: Minimum inhibitory concentration in vitro, agar dilution method; type: cell-based; settings: Citrobacter freundii; C. freundii 902, agar dilution; read-out: MIC
Excerpt: (§1) 1. Minimum Inhibitory Concentration in vitro
(§2) The activities ascertained, minimum inhibitory concentration (MIC) in μg/ml, are compiled in Table 1 hereinafter: […]

E. aerogenes CF153 = assay: as above; type: cell-based; settings: Klebsiella aerogenes; E. aerogenes CF153, agar dilution; read-out: MIC
Excerpt: as §1, §2

E. cloacae 908R = assay: as above; type: cell-based; settings: Enterobacter cloacae; E. cloacae 908R, agar dilution; read-out: MIC
Excerpt: as §1, §2

E. cloacae 908SSi = assay: as above; type: cell-based; settings: Enterobacter cloacae; E. cloacae 908SSi, agar dilution; read-out: MIC
Excerpt: as §1, §2

E. cloacae P99 = assay: as above; type: cell-based; settings: Enterobacter cloacae
Excerpt: as §1, §2

E. coli 25922 [1] = assay: as above; type: cell-based; settings: Escherichia coli; E. coli 25922, agar dilution; read-out: MIC
Excerpt: as §1, §2

K. oxytoca 1082 = assay: as above; type: cell-based; settings: Klebsiella oxytoca; K. oxytoca 1082, agar dilution; read-out: MIC
Excerpt: as §1, §2

K. pneumoniae 418 = assay: as above; type: cell-based; settings: Klebsiella pneumoniae; K. pneumoniae 418, agar dilution; read-out: MIC
Excerpt: as §1, §2

P. aeruginosa 27853 = assay: as above; type: cell-based; settings: Pseudomonas aeruginosa; P. aeruginosa 27853, agar dilution; read-out: MIC
Excerpt: as §1, §2

P. aeruginosa 799/61 = assay: as above; type: cell-based; settings: Pseudomonas aeruginosa; P. aeruginosa 799/61, agar dilution; read-out: MIC
Excerpt: as §1, §2

P. aeruginosa 799/WT = assay: as above; type: cell-based; settings: Pseudomonas aeruginosa; P. aeruginosa 799/WT, agar dilution; read-out: MIC
Excerpt: as §1, §2

P. aeruginosa BA = assay: as above; type: cell-based; settings: Pseudomonas aeruginosa; P. aeruginosa BA, agar dilution; read-out: MIC
Excerpt: as §1, §2

P. aeruginosa MK1184 = assay: as above; type: cell-based; settings: Pseudomonas aeruginosa; P. aeruginosa MK1184, agar dilution; read-out: MIC
Excerpt: as §1, §2

P. mirabilis 2117 = assay: as above; type: cell-based; settings: Proteus mirabilis; P. mirabilis 2117, agar dilution; read-out: MIC
Excerpt: as §1, §2

P. vulgaris 1028 = assay: as above; type: cell-based; settings: Proteus vulgaris; P. vulgaris 1028, agar dilution; read-out: MIC
Excerpt: as §1, §2

S. aureus 6538 = assay: as above; type: cell-based; settings: Staphylococcus aureus; S. aureus 6538, agar dilution; read-out: MIC
Excerpt: as §1, §2

S. marcescens 69438 = assay: as above; type: cell-based; settings: Serratia marcescens; S. marcescens 69438, agar dilution; read-out: MIC
Excerpt: as §1, §2

S. pyogenes 15 = assay: as above; type: cell-based; settings: Streptococcus pyogenes; S. pyogenes 15, agar dilution; read-out: MIC
Excerpt: as §1, §2

E. coli 25922 [2] = assay: Experimental systemic septicaemia in the mouse; type: in vivo; settings: Escherichia coli, sc, 96 h; E. coli 25922, albino mice, s.c. 1 and 3 hours after infection, survival after 4 days; read-out: ED50
Experimental: (§3) 2. Experimental systemic septicaemia in the mouse
(§4) An experimental systemic septicaemia was produced in albino mice weighing 16-20 g by intraperitoneally injecting into the experimental animals a sample of a dilute culture of the test organism which had been grown overnight. The sample administered is calculated such that the dosage administered is about 5-100 times greater than the dosage which is required to kill 50% of untreated experimental animals within 48 hours. The bacteria were injected as a suspension in the culture broth. Groups of 5 experimental animals each were used not only for the control, but also for the treatment for each dosage tested. The products in accordance with the invention were administered subcutaneously as a suspension in Tween 80 (2%), whereby the concentrations were chosen such that each experimental animal received 500 μl per administration. The respective concentrations were administered twice, namely 1 and 3 hours after the infection (in the case of P. aeruginosa three times, namely 1, 3 and 5 hours after the infection). The ED50 is that dosage which protects 50% of the experimental animals and was calculated by means of the Probit method on the basis of the survial rate after 4 days following the infection. The ED50 values in mg/kg s.c. (subcutaneous) for representatives of the class of substance in accordance with the invention are given in Table 2 hereinafter.

[3] = system: Pseudomonas aeruginosa BA; assay: Experimental systemic septicaemia in the mouse; type: in vivo; settings: sc, 96 h, P. aeruginosa BA, albino mice, s.c. 1, 3 and 5 hours after infection, survival after 4 days, read-out: ED50
Experimental: as §3, §4

Row | Structure (SMILES) | MIC (C. freundii 902) [µg/mL] | MIC (E. aerogenes CF153) [µg/mL] | MIC (E. cloacae 908R) [µg/mL] | MIC (E. cloacae 908SSi) [µg/mL] | MIC (E. cloacae P99) [µg/mL] | MIC (E. coli 25922 [1]) [µg/mL] | MIC (K. oxytoca 1082) [µg/mL] | MIC (K. pneumoniae 418) [µg/mL] | MIC (P. aeruginosa 27853) [µg/mL] | MIC (P. aeruginosa 799/61) [µg/mL] | MIC (P. aeruginosa 799/WT) [µg/mL] | MIC (P. aeruginosa BA) [µg/mL] | MIC (P. aeruginosa MK1184) [µg/mL] | MIC (P. mirabilis 2117) [µg/mL] | MIC (P. vulgaris 1028) [µg/mL] | MIC (S. aureus 6538) [µg/mL] | MIC (S. marcescens 69438) [µg/mL] | MIC (S. pyogenes 15) [µg/mL] | ED50 (E. coli 25922 [2]) [mg/kg] | ED50 [3] [mg/kg]
1 | CC(C)(O/N=C(\C(=O)N[C@@H]1C(=O)N2C(C(=O)O)=C(CSc3nc(-c4ccccc4)ncc3-c3ccc(O)c(O)c3)CS[C@H]12)c1csc(N)n1)C(=O)NNC(=O)c1ccc(O)c(O)c1 [Example 46, (6R,7R)-7-[(Z)-2-(2-amino-4-thiazolyl)-2-[[1-[3-(3,4-dihydroxybenzoyl)carbazoyl]-1-methylethoxy]imino]acetamido]-3-[[[5-(3,4-dihydroxyphenyl)-2-phenyl-4-pyrimidinyl]thio]methyl]-8-oxo-5-thia-1-azabicyclo[4.2.0]oct-2-ene-2-carboxylic acid] | 0.5 (≈ 0.547 µM) | 0.25 (≈ 0.274 µM) | 1 (≈ 1.09 µM) | 16 (≈ 17.5 µM) | 16 (≈ 17.5 µM) | 0.12 (≈ 0.131 µM) | 2 (≈ 2.19 µM) | 0.25 (≈ 0.274 µM) | 0.25 (≈ 0.274 µM) | < 0.1 | 0.25 (≈ 0.274 µM) | 0.5 (≈ 0.547 µM) | 2 (≈ 2.19 µM) | 0.25 (≈ 0.274 µM) | 0.5 (≈ 0.547 µM) | > 32 | 4 (≈ 4.38 µM) | 4 (≈ 4.38 µM) | < 0.5 | –
2 | CC(C)(O/N=C(\C(=O)N[C@@H]1C(=O)N2C(C(=O)O)=C(CSc3nc(-c4ccccc4)ncc3-c3ccc(O)c(O)c3)CS[C@H]12)c1csc(N)n1)C(=O)NO [Example 17, (6R,7R)-7-[(Z)-2-(2-amino-4-thiazolyl)-2-[[1-(hydroxycarbamoyl)-1-methylethoxy]imino]acetamido]-3-[[[5-(3,4-dihydroxyphenyl)-2-phenyl-4-pyrimidinyl]thio]methyl]-8-oxo-5-thia-1-azabicyclo[4.2.0]oct-2-ene-2-carboxylic acid] | 0.5 (≈ 0.642 µM) | 0.25 (≈ 0.321 µM) | 1 (≈ 1.28 µM) | 8 (≈ 10.3 µM) | 16 (≈ 20.5 µM) | < 0.1 | 2 (≈ 2.57 µM) | 0.25 (≈ 0.321 µM) | 1 (≈ 1.28 µM) | < 0.1 | 2 (≈ 2.57 µM) | 2 (≈ 2.57 µM) | 8 (≈ 10.3 µM) | 0.5 (≈ 0.642 µM) | 0.25 (≈ 0.321 µM) | > 32 | 0.5 (≈ 0.642 µM) | 0.12 (≈ 0.154 µM) | – | –
3 | Cc1ncc(-c2ccc(O)c(O)c2)c(SCC2=C(C(=O)O)N3C(=O)[C@@H](NC(=O)/C(=N\OC(C)(C)C(=O)NO)c4csc(N)n4)[C@H]3SC2)n1 [Example 19b] | < 0.1 | < 0.1 | 2 (≈ 2.79 µM) | 2 (≈ 2.79 µM) | 8 (≈ 11.2 µM) | < 0.1 | 0.5 (≈ 0.698 µM) | < 0.1 | 0.25 (≈ 0.349 µM) | < 0.1 | 0.25 (≈ 0.349 µM) | 0.5 (≈ 0.698 µM) | 8 (≈ 11.2 µM) | 0.25 (≈ 0.349 µM) | < 0.1 | 16 (≈ 22.3 µM) | < 0.1 | 0.25 (≈ 0.349 µM) | 0.78 | > 3
